Measurements from PubChem BioAssay AID256 (DTP/NCI, 2004).
Toxic doses and inconclusive results are not listed. The calls were made as follows: active = survival T/C of 150% or more; inactive = T/C below 125% in these data.

System: CD2F1 mice, L1210 leukemia ip, survival T/C
Experiment: NCI In Vivo Anticancer Drug Screen. Data for tumor model L1210 Leukemia (intraperitoneal) in CD2F1 (CDF1) mice
Conditions: endpoint: mean survival time, schedule: Q01DX009 (ip), higher = longer survival
How it was run: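 Implant tumor; dose compound or vehicle; measure endpoint in both groups; report treated divided by control.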

Measured: T/C

Oc1ccc(SCc2ccc(NCc3ccccc3)cc2)cc1
inactive: dose: 12.5 mg/kg/injection, vehicle: DMSO 95 % of control | dose: 12.5 mg/kg/injection, vehicle: saline with Tween-80 99 % of control | dose: 25.0 mg/kg/injection, vehicle: DMSO 97 % of control | dose: 25.0 mg/kg/injection, vehicle: saline with Tween-80 97 % of control | dose: 50.0 mg/kg/injection, vehicle: DMSO 97 % of control | dose: 50.0 mg/kg/injection, vehicle: saline with Tween-80 103 % of control | dose: 100.0 mg/kg/injection, vehicle: DMSO 92 % of control | dose: 100.0 mg/kg/injection, vehicle: saline with Tween-80 104 % of control | dose: 200.0 mg/kg/injection, vehicle: saline with Tween-80 101 % of control | dose: 400.0 mg/kg/injection, vehicle: saline with Tween-80 101 % of control
